# Data as given in patent publication US20110237659A1, “CHROMENONE DERIVATIVES AS TRPV3 ANTAGONISTS” (GLENMARK PHARMACEUTICALS S.A., priority 2008, published 2011).
# Biological target: T1, Human TRPV3 (Homo sapiens, UniProt Q8NET8)
# T1 construct: expressed in transfected cells; host or cells: CHO cells
# T1 sequence (Q8NET8 1-790): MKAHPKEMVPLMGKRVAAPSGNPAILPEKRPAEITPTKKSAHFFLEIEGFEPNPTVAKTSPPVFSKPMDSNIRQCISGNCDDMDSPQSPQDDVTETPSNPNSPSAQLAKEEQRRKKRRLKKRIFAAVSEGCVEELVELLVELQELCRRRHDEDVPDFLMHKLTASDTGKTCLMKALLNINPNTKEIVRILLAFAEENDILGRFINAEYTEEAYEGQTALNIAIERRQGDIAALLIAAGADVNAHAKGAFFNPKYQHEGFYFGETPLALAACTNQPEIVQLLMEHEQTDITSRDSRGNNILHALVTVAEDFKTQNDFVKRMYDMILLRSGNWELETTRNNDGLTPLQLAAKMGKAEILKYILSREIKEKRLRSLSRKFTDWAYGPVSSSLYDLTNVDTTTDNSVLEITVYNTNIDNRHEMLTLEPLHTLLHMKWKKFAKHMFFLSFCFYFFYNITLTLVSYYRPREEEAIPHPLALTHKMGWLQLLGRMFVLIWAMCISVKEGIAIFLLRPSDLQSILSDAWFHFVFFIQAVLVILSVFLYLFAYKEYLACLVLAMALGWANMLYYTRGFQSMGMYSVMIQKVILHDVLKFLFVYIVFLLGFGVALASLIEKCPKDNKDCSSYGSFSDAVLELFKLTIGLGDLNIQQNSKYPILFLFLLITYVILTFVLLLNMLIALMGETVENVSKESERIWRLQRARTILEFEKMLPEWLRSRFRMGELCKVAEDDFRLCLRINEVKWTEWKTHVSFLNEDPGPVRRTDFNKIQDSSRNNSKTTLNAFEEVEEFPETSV
# Assay: 45Calcium uptake assay: inhibition of 2-APB induced cellular uptake of radioactive calcium in human TRPV3 expressing CHO cells
# Format: cell-based
# Settings: 2-APB 500 μM; for inhibition at 1 µM: 1.0 μM test compound, read-out: Percentage inhibition at 1.0 μM; for inhibition at 10 µM: 10.0 μM test compound, read-out: Percentage inhibition at 10.0 μM
# Description: The illustrative examples of the present invention are screened for TRPV3 activity according to a modified procedure described in (a) Tóth, A. et al. Life Sciences 2003, 73, 487-498. (b) McNamara C, R. et al. Proc. Natl. Acad. Sci. U.S.A., 2007, 104, 13525-13530. The screening of the compounds can be carried out by other methods and procedures known to persons skilled in the art.
# Screening for TRPV3 Antagonist Using the ^45Calcium Uptake Assay
# The inhibition of TRPV3 receptor activation was followed as inhibition of 2-aminoethxydiphenylborate (2-APB) induced cellular uptake of radioactive calcium. Test compounds were dissolved in dimethyl sulfoxide (DMSO) to prepare 20 mM stock solution and then diluted using plain medium with DMEM/F-12 containing 1.8 mM CaCl2 to get desired concentration. Final concentration of DMSO in the reaction was 0.5% (v/v). Human TRPV3 expressing CHO cells were grown in DMEM/F-12 medium with 10% FBS, 1% penicillin-streptomycin solution, 400 μg/mL of G-418. Cells were seeded 24 h prior to the assay in 96 well plates so as to get ˜50,000 cells per well on the day of experiment. Cells were treated with test compounds for 10 minutes followed by addition of 2-APB at a final concentration of 500 μM and 5 μCi/mL ^45Ca^+2 for 4 minutes. Cells were washed and lysed using buffer containing 1% Triton X-100, 0.1% deoxycholate and 0.1% SDS. Radioactivity in the lysate was measured in Packardt Top count after addition of liquid scintillant. Concentration response curves were plotted as a % of maximal response obtained in the absence of test antagonist. IC50 value was calculated from concentration response curve by nonlinear regression analysis using GraphPad PRISM software.
# Percentage inhibition at concentrations of 1.0 μM and 10.0 μM are given in the table along with IC50 (nM) values for selected examples.
Structure (SMILES),inhibition at 1 µM [%],inhibition at 10 µM [%],IC50 [nM]
"COc1cccc(/C=C/c2oc3ccccc3c(=O)c2-c2ccc(OC(F)(F)F)cc2)c1OCC1CC1 [Example 1, 2-[(E)-2-(2-Cyclopropylmethoxy-3-methoxyphenyl)-1-ethenyl]-3-(4-trifluoromethoxy-phenyl)-4H-4-chromenone]",36.7,62.2,–
"COc1cccc(/C=C/c2oc3ccccc3c(=O)c2-c2ccc(C(F)(F)F)cc2)c1OCC1CC1 [Example 2, 2-[(E)-2-(2-Cyclopropylmethoxy-3-methoxyphenyl)-1-ethenyl]-3-(4-trifluoromethyl-phenyl)-4H-4-chromenone]",63.1,75.4,150 to 1000
"N#Cc1ccc(-c2c(/C=C/c3cccc(OC(F)F)c3OCC3CC3)oc3ccccc3c2=O)cc1 [Example 4, 4-(2-{(E)-2-[2-(Cyclopropylomethoxy)-3-(difluoromethoxy)phenyl]vinyl}-4-oxo-4H-3-chromenyl}benzonitrile]",92.9,94.8,150 to 1000
"COc1cccc(/C=C/c2oc3ccccc3c(=O)c2-c2ccc(C#N)cc2)c1OC1CCCC1 [Example 5, 4-{2-[(E)-2-(2-Cyclopentyloxy-3-methoxyphenyl)-1-ethenyl]-4-oxo-4H-3-chromenyl}benzonitrile]",71.8,90.3,150 to 1000
"COc1cccc(/C=C/c2oc3ccccc3c(=O)c2-c2ccc(C#N)cc2)c1O [Example 6, 4-{2-[(E)-2-(2-Hydroxy-3-methoxyphenyl)-1-ethenyl]-4-oxo-4H-3-chromenyl}-benzonitrile]",32.1,83.9,–
"COc1cccc(/C=C/c2oc3ccccc3c(=O)c2-c2ccc(C#N)cc2)c1OCC(C)(C)C [Example 7, 4-{2-[(E)-2-[2-(2,2-Dimethylpropoxy)-3-methoxyphenyl]-1-ethenyl]-4-oxo-4H-3-chromenyl}benzonitrile]",89.8,93.2,50 to 150
"COc1cccc(/C=C/c2oc3ccccc3c(=O)c2-c2ccc(C#N)cc2)c1OCC(C)C [Example 8, 4-{2-[(E)-2-[2-Isobutoxy-3-methoxyphenyl)-1-ethenyl]-4-oxo-4H-3-chromenyl}benzonitrile]",89.3,96.4,50 to 150
"COc1cccc(/C=C/c2oc3ccccc3c(=O)c2-c2ccc(C#N)cc2)c1OCCC(F)(F)F [Example 9, 4-(2-{(E)-2-[3-Methoxy-2-(3,3,3-trifluoropropoxy)phenyl]-1-ethenyl}-4-oxo-4H-3-chromenyl}benzonitrile]",94.5,98,50 to 150
"COc1cccc(/C=C/c2oc3cc(F)ccc3c(=O)c2-c2ccc(C#N)cc2)c1OCC1CC1 [Example 10, 4-{2-[(E)-2-(2-Cyclopropylmethoxy-3-methoxyphenyl)-1-ethenyl]-7-fluoro-4-oxo-4H-3-chromenyl}benzonitrile]",87.3,95.6,150 to 1000
"COc1cccc(/C=C/c2oc3cc(F)ccc3c(=O)c2-c2ccc(C#N)cc2)c1OC1CCCC1 [Example 11, 4-{2-[(E)-2-(2-Cyclopentyloxy-3-methoxyphenyl)-1-ethenyl]-7-fluoro-4-oxo-4H-3-chromenyl}benzonitrile]",84.6,92.6,50 to 150
"COc1cccc(/C=C/c2oc3cc(F)ccc3c(=O)c2-c2ccc(C#N)cc2)c1OCC(C)C [Example 13, 4-{7-Fluoro-2-[(E)-2-(2-isobutoxy-3-methoxyphenyl)-1-ethenyl]-4-oxo-4H-3-chromenyl}benzonitrile]",92.9,96.7,50 to 150
"COc1cccc(/C=C/c2oc3ccc(F)cc3c(=O)c2-c2ccc(C#N)cc2)c1OCC1CC1 [Example 15, 4-{2-[(E)-2-(2-Cyclopropylmethoxy-3-methoxyphenyl)-1-ethenyl]-6-fluoro-4-oxo-4H-3-chromenyl}benzonitrile]",79.3,94.1,150 to 1000
"COc1cccc(/C=C/c2oc3ccc(F)cc3c(=O)c2-c2ccc(C#N)cc2)c1OCC1CCC1 [Example 17, 4-{2-[(E)-2-(2-Cyclobutylmethoxy-3-methoxyphenyl)-1-ethenyl]-6-fluoro-4-oxo-4H-3-chromenyl}benzonitrile]",78.2,89.8,150 to 1000
"COc1cccc(/C=C/c2oc3ccc(F)cc3c(=O)c2-c2ccc(C#N)cc2)c1OCCC(C)C [Example 18, 4-{6-Fluoro-2-[(E)-2-(2-isopentyloxy-3-methoxyphenyl)-1-ethenyl]-4-oxo-4H-3-chromenyl}benzonitrile]",55.2,71.7,–
"COc1cccc(/C=C/c2oc3ccc(F)cc3c(=O)c2-c2ccc(C#N)cc2)c1OCC(C)C [Example 19, 4-{6-Fluoro-2-[(E)-2-(2-isobutoxy-3-methoxyphenyl)-1-ethenyl]-4-oxo-4H-3-chromenyl}benzonitrile]",70.2,87.8,< 50

# The next lines start with the values.
inhibition at 1 µM [%],inhibition at 10 µM [%],IC50 [nM],Structure (SMILES)
90.4,94.5,150 to 1000,"COc1cccc(/C=C/c2oc3ccccc3c(=O)c2-c2ccc(C#N)cc2)c1OCC1CC1 [Example 3, 4-{2-[(E)-2-(2-Cyclopropylmethoxy-3-methoxyphenyl)-1-ethenyl]-4-oxo-4H-3-chromenyl}benzonitrile]"
82.2,91.2,< 50,"COc1cccc(/C=C/c2oc3cc(F)ccc3c(=O)c2-c2ccc(C#N)cc2)c1OCC(C)(C)C [Example 12, 4-{7-Fluoro-2-[(E)-2-(3-methoxy-2-neopentyloxyphenyl)-1-ethenyl]-4-oxo-4H-3-chromenyl}benzonitrile]"
96,98.7,150 to 1000,"COc1cccc(/C=C/c2oc3cc(F)ccc3c(=O)c2-c2ccc(C#N)cc2)c1OCCC(F)(F)F [Example 14, 4-(7-Fluoro-2-{(E)-2-[3-methoxy-2-(3,3,3-trifluoropropoxy)phenyl]-1-ethenyl}-4-oxo-4H-3-chromenyl)benzonitrile]"
59.4,74.4,–,"COc1cccc(/C=C/c2oc3ccc(F)cc3c(=O)c2-c2ccc(C#N)cc2)c1OC1CCCC1 [Example 16, 4-{2-[(E)-2-(2-Cyclopentyloxy-3-methoxyphenyl)-1-ethenyl]-6-fluoro-4-oxo-4H-3-chromenyl}benzonitrile]"
74.3,78.5,< 50,COc1cccc(/C=C/c2oc3ccc(F)cc3c(=O)c2-c2ccc(C#N)cc2)c1OCC(C)(C)C [Example 20]
76.4,87.7,150 to 1000,"COc1cccc(/C=C/c2oc3ccc(Cl)cc3c(=O)c2-c2ccc(C#N)cc2)c1OCC1CC1 [Example 21, 4-{6-Chloro-2-[(E)-2-(2-cyclopropylmethoxy-3-methoxyphenyl)-1-ethenyl]-4-oxo-4H-3-chromenyl}benzonitrile]"
40,73,–,"COc1cccc(/C=C/c2oc3c(F)cc(F)cc3c(=O)c2-c2ccc(C#N)cc2)c1OCC1CC1 [Example 22, 4-{2-[(E)-2-(2-Cyclopropylmethoxy-3-methoxyphenyl)-1-ethenyl]-6,8-difluoro-4-oxo-4H-3-chromenyl}benzonitrile]"
